This note sets out measurements from ChEMBL document CHEMBL4251724, “Ypaoamides B and C, Linear Lipopeptides from an Okeania sp. Marine Cyanobacterium” (J Nat Prod, 2018).

Common to all, as to format: cell-based
Data set [1] concerns L6. The data set can be described thus: Activation of AMPK in rat L6 cells assessed as glucose uptake after 16 hrs.
Data set [2] has as its system L6. Briefly: Activation of AMPK in rat L6 cells assessed as glucose uptake at 40 uM in presence of AMPK inhibitor compound C after 8 hrs.
The test system of data set [3] is L6. The data set can be described thus: Cytotoxicity against rat L6 cells assessed as reduction in cell viability at 10 to 40 uM after 16 hrs by MTT assay. Particulars: l6, 16 h. In general terms: Formazan colour is commonly taken as a measure of viable cells.
Data set [4] has as its system L6. Briefly: Activation of AMPK in rat L6 cells assessed as increase in AMPK phosphorylation at 40 uM by Western blot analysis. In general terms: Immunoblotting shows a protein as a band on a membrane.

The source made the active and inactive calls. No cut-off for these calls is given here.

`CO/C(=C/C(=O)N1C(=O)C=C[C@@H]1CC(C)C)CCNC(=O)CCCCC(C)(C)C`: the Activity result with L6 [1] was “Dose-dependent effect”; in the data set with L6 [3], “Non-Toxic”. In the data set with L6 [2], the outcome was inactive. Besides, the result in the data set with L6 [4] was Active.

As for `CO/C(=C/C(=O)N1C(=O)C=C[C@@H]1C)C/C(=C/Cl)CNC(=O)CCCCC(C)(C)C`, the results for the Activity entry with L6 [1] and with L6 [3] were “Dose-dependent effect” and “Non-Toxic”, respectively.
